Results reported in patent US6133275A, “3-phenylpyrrolidine alpha-1 adrenergic compounds” (Abbott Laboratories, priority 1998, dated 2000).
Structures can show the parent of a compound that is named as a salt.

Legend:
[1] = molecular target: T1, α1d (rat) (Rattus norvegicus, UniProt P23944); test: Radioligand binding, displacement of [3H]-prazosin from cloned α1d (rat) expressed in LTK cells; details: [3H]-prazosin 0.2 nM; cloned rat α1d in LTK cell membranes; 25° C., 50 minutes
T1 sequence (P23944 1-561): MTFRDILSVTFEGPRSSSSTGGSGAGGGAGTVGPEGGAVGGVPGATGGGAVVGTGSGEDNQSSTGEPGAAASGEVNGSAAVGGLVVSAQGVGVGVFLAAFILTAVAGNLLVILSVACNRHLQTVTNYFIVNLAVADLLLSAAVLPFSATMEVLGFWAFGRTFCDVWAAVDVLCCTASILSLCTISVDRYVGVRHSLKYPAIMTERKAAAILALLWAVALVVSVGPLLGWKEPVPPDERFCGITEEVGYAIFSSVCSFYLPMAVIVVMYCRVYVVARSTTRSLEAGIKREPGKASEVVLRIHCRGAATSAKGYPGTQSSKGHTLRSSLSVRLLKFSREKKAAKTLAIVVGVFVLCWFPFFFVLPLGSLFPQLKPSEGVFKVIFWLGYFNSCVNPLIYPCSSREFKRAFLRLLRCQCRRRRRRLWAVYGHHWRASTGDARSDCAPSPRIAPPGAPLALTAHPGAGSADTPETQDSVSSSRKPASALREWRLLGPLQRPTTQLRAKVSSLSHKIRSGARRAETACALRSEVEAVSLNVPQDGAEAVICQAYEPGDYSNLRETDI

[2] = molecular target: T2, α1a (Rat) (Rattus norvegicus, UniProt P43140); test: Radioligand binding, displacement of [3H]-prazosin from cloned α1a (rat) expressed in LTK cells; details: [3H]-prazosin 0.2 nM; cloned rat α1a in LTK cell membranes; 25° C., 50 minutes
T2 sequence (P43140 1-466): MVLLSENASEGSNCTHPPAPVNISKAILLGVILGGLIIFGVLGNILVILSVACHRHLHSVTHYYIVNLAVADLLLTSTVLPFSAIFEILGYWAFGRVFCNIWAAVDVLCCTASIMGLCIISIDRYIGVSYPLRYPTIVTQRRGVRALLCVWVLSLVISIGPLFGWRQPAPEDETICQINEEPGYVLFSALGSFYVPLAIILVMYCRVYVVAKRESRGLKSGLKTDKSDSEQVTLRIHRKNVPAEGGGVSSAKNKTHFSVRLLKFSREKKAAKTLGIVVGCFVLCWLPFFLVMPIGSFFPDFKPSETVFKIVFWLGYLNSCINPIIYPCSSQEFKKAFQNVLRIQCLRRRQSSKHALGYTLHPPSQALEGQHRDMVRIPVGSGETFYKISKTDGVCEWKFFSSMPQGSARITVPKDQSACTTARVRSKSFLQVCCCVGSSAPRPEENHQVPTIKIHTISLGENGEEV

[3] = molecular target: T3, α1b (Hamster) (Mesocricetus auratus, UniProt P18841); test: Radioligand binding, displacement of [3H]-prazosin from cloned α1b (hamster) expressed in LTK cells; details: [3H]-prazosin 0.2 nM; cloned hamster α1b in LTK cell membranes; 25° C., 50 minutes
T3 sequence (P18841 1-515): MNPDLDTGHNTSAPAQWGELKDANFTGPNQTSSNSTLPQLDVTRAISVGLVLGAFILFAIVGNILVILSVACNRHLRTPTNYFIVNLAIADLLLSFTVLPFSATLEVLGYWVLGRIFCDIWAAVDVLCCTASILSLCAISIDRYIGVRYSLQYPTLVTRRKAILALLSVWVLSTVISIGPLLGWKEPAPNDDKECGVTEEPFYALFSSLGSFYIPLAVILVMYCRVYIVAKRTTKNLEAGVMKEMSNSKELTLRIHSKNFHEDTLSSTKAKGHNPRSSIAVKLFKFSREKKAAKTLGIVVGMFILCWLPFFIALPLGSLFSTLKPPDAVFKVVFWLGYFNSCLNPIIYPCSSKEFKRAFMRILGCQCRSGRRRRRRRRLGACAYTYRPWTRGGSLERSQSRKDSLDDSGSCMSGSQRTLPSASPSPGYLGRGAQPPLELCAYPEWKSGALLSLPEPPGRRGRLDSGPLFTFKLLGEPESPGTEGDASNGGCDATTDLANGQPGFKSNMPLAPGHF

[4] = molecular target: T4, α1a (Bovine) (Bos taurus, UniProt P18130); test: Radioligand binding, displacement of [3H]-prazosin from cloned α1a (bovine) expressed in LTK cells; details: [3H]-prazosin 0.2 nM; cloned bovine α1a in LTK cell membranes; 25° C., 50 minutes
T4 sequence (P18130 1-466): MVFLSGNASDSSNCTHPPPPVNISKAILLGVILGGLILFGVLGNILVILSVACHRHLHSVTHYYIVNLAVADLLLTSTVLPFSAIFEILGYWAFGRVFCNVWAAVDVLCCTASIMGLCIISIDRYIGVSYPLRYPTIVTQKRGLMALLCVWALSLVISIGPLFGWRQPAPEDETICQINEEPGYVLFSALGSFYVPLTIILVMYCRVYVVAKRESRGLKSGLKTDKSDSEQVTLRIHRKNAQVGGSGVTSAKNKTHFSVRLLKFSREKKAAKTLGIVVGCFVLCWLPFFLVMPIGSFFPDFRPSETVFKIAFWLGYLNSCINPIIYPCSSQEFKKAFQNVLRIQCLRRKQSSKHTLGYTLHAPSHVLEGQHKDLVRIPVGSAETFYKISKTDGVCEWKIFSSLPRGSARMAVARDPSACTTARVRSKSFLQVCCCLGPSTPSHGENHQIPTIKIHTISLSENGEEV

Ki [1] [nM]	Ki [2] [nM]	Ki [3] [nM]	Ki [4] [nM]	SMILES
0.47	0.22	5.9	0.09	COc1ccccc1[C@H]1CCN(CCCCn2c(=O)[nH]c3c(sc4ncc(Cl)nc43)c2=O)C1 [Example 14, (R)-8-Chloro-3-[4-[3-(2-methoxyphenyl)-1-pyrrolidinyl]butyl]pyrazino[2',3':4,5]thieno[3,2-d]pyrimidine-2,4(1H,3H)-dione, Dihydrochloride]
2.25	2.05	9.68	1.25	COc1ccccc1[C@H]1CCN(CCCn2c(=O)[nH]c3c(sc4cccnc43)c2=O)C1 [Example 5, (R)-3-[3-[3-(2-Methoxyphenyl)-1-pyrrolidinyl]propyl]pyrido[2',3':4,5]thieno[3,2-d]pyrimidine-2,4(1H,3H)-dione Dihydrochloride]
69.4	46.3	194	12	COc1cccc([C@H]2CCN(CCn3c(=O)[nH]c4c(sc5cccnc54)c3=O)C2)c1 [Example 20, (R)-3-[2-[3-(3-methoxyphenyl)-1-pyrrolidinyl]ethyl]pyrido[2',3':4,5]thieno[3,2-d]pyrimidine-2,4(1H,3H)-dione, Dihydrochloride]
11.5	5.11	18.4	1.52	COc1cccc([C@H]2CCN(CCCCn3c(=O)[nH]c4c(sc5cccnc54)c3=O)C2)c1 [Example 22, (R)-3-[4-[3-(3-methoxyphenyl)-1-pyrrolidinyl]butyl]pyrido[2',3':4,5]thieno[3,2-d]pyrimidine-2,4(1H,3H)-dione, Dihydrochloride]
0.15	0.26	2.37	0.06	COc1cnc2sc3c(=O)n(CCCCN4CC[C@H](c5ccccc5OC)C4)c(=O)[nH]c3c2n1 [Example 15, (R)-8-Methoxy-3-[4-[3-(2-methoxyphenyl)-1-pyrrolidinyl]butyl]pyrazino-[2',3':4,5]thieno[3,2-d]pyrimidine-2,4(1H,3H)-dione, Dihydrochloride]
3.04	6.79	10.7	1.24	COc1cccc([C@@H]2CCN(CCn3c(=O)[nH]c4c(sc5ccccc54)c3=O)C2)c1 [Example 26, (S)-3-[2-[3-(3-methoxyphenyl)-1-pyrrolidinyl]ethyl]-[1]benzothieno[3,2-d]pyrimidine-2,4(1H,3H)-dione, Monohydrochloride]
0.22	0.12	1.77	0.05	COc1ccccc1[C@H]1CCN(CCCCn2c(=O)[nH]c3c(sc4cccnc43)c2=O)C1 [Example 6, (R)-3-[4-[3-(2-Methoxyphenyl)-1-pyrrolidinyl]butyl]pyrido[2',3':4,5]thieno[3,2-d]pyrimidine-2,4(1H,3H)-dione Dihydrochloride]
0.36	0.21	2.99	0.07	COc1ccccc1[C@H]1CCN(CCCCn2c(=O)[nH]c3c(sc4nccnc43)c2=O)C1 [Example 13, (R)-3-[4-[3-(2-Methoxyphenyl)-1-pyrrolidinyl]butyl]pyrazino[2',3':4,5]thieno[3,2-d]pyrimidine-2,4(1H,3H)-dione, Dihydrochloride]
0.64	1.61	11.8	0.09	COc1ccccc1[C@H]1CCN(CCCCn2c(=O)[nH]c3c(sc4ncc(-c5ccccc5)nc43)c2=O)C1 [Example 16, (R)-8-phenyl-3-[4-[3-(2-methoxyphenyl)-1-pyrrolidinyl]butyl]pyrazino[2',3':4,5]thieno[3,2-d]pyrimidine-2,4(1H,3H)-dione, Dihydrochloride]
27.8	25.8	88.6	10.3	COc1ccccc1[C@@H]1CCN(CCCn2c(=O)[nH]c3c(sc4cccnc43)c2=O)C1 [Example 28, (S)-3-[3-[3-(2-methoxyphenyl)-1-pyrrolidinyl]propyl]pyrido[2',3':4,5]thieno[3,2-d]pyrimidine-2,4(1H,3H)-dione, Dihydrochloride]
